According to patent publication US10725042B2, “Methods of diagnosing and treating cancer” (Case Western Reserve University, priority 2012, dated 2020):

Tests used:
H1975 66 shUNG cells = experiment: Colony survival assay, H1975 66 shUNG cells; type: cell-based, human
Procedure: (§1) For cells in suspension, colony survival was determined by crystal violet staining of colonies formed after 10-day exposure of 5×10^3 cells to pemetrexed in soft agar. For adherent cells, colony survival was determined by methylene blue staining of colonies formed after 10-day exposure of 100 cells to pemetrexed in 6-well culture dishes. Only colonies containing ≥50 cells were counted. Data points represent percent of colonies relative to untreated control averaged over 3 experiments.
UNG directed shRNA and siRNA plasmids were purchased from Origene. Transfection was carried out according to manufacturer specifications. Stably transfected clones (shRNA) were selected with puromycin with subsequent expansion of a well-isolated colony of cells.

H1299/PR-1 cells = experiment: Colony survival assay, H1299/PR-1 pemetrexed-resistant subline; type: cell-based, human; conditions: PR-1 and PR-2 cells
Procedure: as §1
H1299 cells were exposed to step-wise increasing concentrations of pemetrexed over a period of 4 months. UNG expression was monitored in the bulk population at 2, 8, 12 and 16 weeks prior to administration of the induction dosage and at 24 weeks in a population of bulk chronically exposed cells that had been without pemetrexed for 8 weeks. H1299 cells capable of growth in 50 nM pemetrexed selection pressure were subcloned by limiting dilution in 96 well plates. Independent sublines were designated H1299/PR-1 and H1299/PR-2.

UNG−/− MEFs = conditions: treated UNG−/− MEFs; cited from earlier work
[1] = tested on: uracil in DNA of UDG−/− cells; experiment: Uracil in DNA by HPLC/MS/MS, UDG−/− cells; type: cell-based, human; conditions: UDG−/− cells; drug 10 μM, 6-72 hr
Procedure: UDG^−/− and UDG^+/+ cells were exposed to pemetrexed (10 μM) or 5-fluorouracil (10 μM) for 6, 24, 48 and 72 hrs. At indicated time points, cells were harvested and genomic DNA was extracted by phenol/chloroform. Forty μg of DNA were incubated with 10 U of purified UDG (New England Biolabs) in 60 μL of reaction buffer at 37° C. for 2 hrs. The reaction products were dried at 35° C. in a Turbovap under a stream of nitrogen and reconstituted in 150 μL 90% acetonitrile. The analyte was retained by an Atlantis Hilis Silica analytical column (2.1×100 mm, 3.5 μM) and eluted isocratically by a mixture of 90% acetonitrile and 10% 2.0 mM ammonium formate at a flow rate of 0.2 ml/min. The detection was done by an API 3200 MS/MS mass spectrometer.

DLD1/UDG−/− cells = experiment: Colony survival (clonogenic) assay, UDG−/− cells; type: cell-based, human; conditions: 5-FU 0-20 μM, temozolomide 0-1500 μM, cisplatin 0-40 μM
Procedure: Recombinant virus was grown in 293T cells and subsequently used to infect DLD1 cells. Selection of positively transfected clones was achieved by the addition of G418 to the culture medium. A second infection of transfected clones with Cre-recombinase adenovirus caused excision of the neomycin resistance cassette. Dflag cell line was produced by transfection of UDG expression vector in UDG^−/− cells to restore UDG activity.
Tumor cells (500-2000/dish) were plated and treated with pemetrexed (0-400 nM), 5-fluorouracil (0-20 μM), temozolomide (0-1500 μM), or cisplatin (0-40 μM). After 7 days, surviving colonies were stained with methylene blue for 30 min at room temperature and the colonies containing more than 50 cells were counted to generate survival curves.

cell culture = experiment: Tolerance of MX in cell culture; type: cell-based; conditions: MX at 3 mM
[2] = tested on: 293t cells expressing the bacteriophage UNG inhibitor Ugi; conditions: treated 293t cells expressing Ugi; cited from earlier work

SMILES: O=c1[nH]cc(F)c(=O)[nH]1 [5-FU, 5-fluorouracil]
- cross sensitivity of UNG deficient H1975 cells (H1975 66 shUNG cells): some cross sensitivity
- cross-resistance of PR-1 and PR-2 cells (H1299/PR-1 cells): cross-resistance
- increase in uracil (UNG−/− MEFs): 1.5 fold
- uracil detected in DNA [1]: greater retention of uracil
- differential sensitivity of UDG−/− vs UDG+/+ cells (DLD1/UDG−/− cells): more sensitive

SMILES: O=c1[nH]c(=O)n([C@H]2C[C@H](O)[C@@H](CO)O2)cc1F [FdUrd]
- increase in uracil (UNG−/− MEFs): 1.5 fold

SMILES: CON [MX, methoxyamine]
- tolerance in cell culture (cell culture): well tolerated

SMILES: N.N.[Cl][Pt][Cl] [cisplatin]
- cross sensitivity of UNG deficient H1975 cells (H1975 66 shUNG cells): not
- cross-resistance of PR-1 and PR-2 cells (H1299/PR-1 cells): not resistant
- differential sensitivity of UDG−/− vs UDG+/+ cells (DLD1/UDG−/− cells): no significant differential sensitivity

SMILES: Cc1nc2ccc(CN(C)c3ccc(C(=O)N[C@@H](CCC(=O)O)C(=O)O)s3)cc2c(=O)[nH]1 [raltitrexed]
- cross sensitivity of UNG deficient H1975 cells (H1975 66 shUNG cells): some cross sensitivity
- cross-resistance of PR-1 and PR-2 cells (H1299/PR-1 cells): cross-resistance
- increase in uracil [2]: 8 fold

SMILES: Cc1cn([C@H]2C[C@H](O)[C@@H](CO)O2)c(=O)[nH]c1=O [thymidine]
- effect of supplemental thymidine on pemetrexed sensitivity (H1975 66 shUNG cells; H1975 shUNG cells, 10 μM thymidine): rescued pemetrexed sensitivity
